Row | Structure (SMILES) | melting point
1 | O=C(O)CC(c1ccccc1)c1ccccc1 | 150 to 155 °C
2 | Cc1cc2c3c(c1)c(O)c(-c1ccccc1)c(=O)n3CCC2 | 215 to 218 °C
3 | COc1cc2c(c(OC)c1OC)C(=O)[C@]1(OC)C=C[C@H]2N(c2ccccc2)O1 | 114 °C
4 | Cc1ccccc1NC(=S)/C(=N\NC(=N)N)c1ccccc1 | 206 to 207 °C
5 | CC1=NC2(CCCCC2)[N+]([O-])=C1 | 112 to 116 °C
6 | Cc1ccccc1NC(=O)c1ccccc1 | 146 °C
7 | CC(C)SC(C)C | -78.1 °C
8 | CC12CCC(C(=CC(=O)NC(N)=O)C1=O)C2(C)C (configuration not stated) | 206 °C
9 | COC(=O)[C@@H]1C[C@@H]2CCCN2[C@@]12C(=O)c1cccc3cccc2c13 | 145 °C
10 | FC(F)(F)C1(F)C(F)(F)C(F)(F)C(F)(F)C2(F)C(F)(F)C(F)(F)C(F)(F)C(F)(F)C12F (configuration not stated) | -70 °C
11 | O=C(O)c1cccc(C(=O)O)n1 | 248 to 250 °C
12 | Nc1ccc(-c2cccs2)nc1 | 144 to 145 °C
13 | Ic1ccc2[nH]ccc2c1 | 99 °C
14 | CCCCOCCOC(C)=O | -63 °C
15 | Cc1ccc(F)cc1 | -56 °C
16 | Nc1cccc2cc3ccccc3cc12 | 116 °C
17 | O=C(O)c1nnn(Cc2ccccc2)c1C(=O)O | 180 °C
18 | NC(=S)CS(=O)(=O)c1ccc(Cl)cc1 | 188 to 192 °C
19 | NC(C(=O)O)c1ccccc1 (configuration not stated) | 302 °C
20 | C=C=C | -136 °C
21 | Nc1c(Cl)cccc1C(=O)O | 190 °C

Row | Structure (SMILES) | melting point
22 | O=C(CBr)c1cccc([N+](=O)[O-])c1 | 94 °C
23 | O=Cc1ccc(SCc2ccco2)c([N+](=O)[O-])c1 | 153 to 154 °C
24 | CN1CCC(N(Cc2ccccc2)c2ccccc2)CC1 | 114 °C
25 | C[C@@H]1N[C@H](C(=O)O)CC2c3ccccc3NC21 (some centres not stated) | 286 °C
26 | O=[N+]([O-])c1ccc(C=Cc2cccc3ccccc23)c([N+](=O)[O-])c1 | 228 °C
27 | O=C(O)C1CC(=O)N(Cc2ccc(F)cc2)C1 (configuration not stated) | 150 to 151 °C
28 | C[C@]12CCC(=O)C[C@H]1CC[C@H]1[C@H]3CCC(=O)[C@@]3(C)CC[C@@H]12 | 179 to 180 °C
29 | BrCc1ccccc1Br | 31 °C
30 | N#Cc1c(C(F)(F)F)cc(-c2cccs2)n(N)c1=O | 234 °C
31 | O=C(Cl)c1cnc2ccccc2n1 | 100 °C
32 | CC(Nc1ccc(Br)cn1)=C(C#N)C(=O)c1ccccc1 | 179 to 181 °C
33 | Nc1ccncc1C(F)(F)F | 100 °C
34 | CC(=O)OCC1=CC2CC(=O)C3=COC(OC4OC(CO)C(O)C(O)C4O)C1C32 (configuration not stated) | 128 °C
35 | O=C(Nc1cccc(Br)c1)c1cncc(Cl)n1 | 100 °C
36 | Cn1nc(N)c2c(=O)c(C(=O)O)c[nH]c21 | 223 to 225 °C
37 | Cc1cc2c(C#N)c3ccc4ccccc4n3c(=O)c2c(C)n1 | 243 °C
38 | CC(=O)C=CC=Cc1ccccc1 | 68 °C
39 | O=C1NC2CC=CCC12 (configuration not stated) | 122 °C
40 | CCOc1ccc2nc(S(N)(=O)=O)sc2c1 | 188 °C
41 | CC(C)COC=O | -95.8 °C
42 | c1ccc(C2(N3CCCCC3)CCCCC2)cc1 | 46.5 °C

Row | Structure (SMILES) | melting point
43 | O=Cc1ccccc1OCc1c(Cl)cccc1Cl | 109 to 112 °C
44 | C=C(C)C1CCC(C)CC1O (configuration not stated) | 78 °C
45 | c1ccc2c(c1)CC1c3ccccc3CCN1C2 (configuration not stated) | 85 °C
46 | COc1ccccc1/C=C/C(=O)O | 185 °C
47 | NCc1ccccc1 | 10 °C
48 | COP(=S)(OC)SCN1C(=O)c2ccccc2C1=O | 72 °C
49 | CCOc1ccc(C(N)=O)cc1 | 209 °C
50 | CNC1=CC(=O)c2ccccc2C1=O | 230 °C
51 | N#Cc1ccc(N2CCNCC2)cc1 | 82 to 84 °C
52 | CCOC(=O)c1[nH]nc(C)c1C(=O)OCC | 98 to 99 °C
53 | CCOP(=S)(OCC)SC1OCCOC1SP(=S)(OCC)OCC (configuration not stated) | -2 °C
54 | Clc1ccc(C(Cn2ccnc2)OCc2csc3c(Cl)cccc23)c(Cl)c1 (configuration not stated) | 146 °C
55 | COc1ccc2c(c1)[nH]c1c(C)nccc12 | 273 °C
56 | Cc1ccc(OP(=O)(Oc2ccc(C)c(C)c2)Oc2ccc(C)c(C)c2)cc1C | 72 °C
57 | CCOC(=O)c1cc2c(=O)oc3ccccc3c2nc1N | 192 °C
58 | Oc1ccc(Cl)c(C(F)(F)F)c1 | 44 °C
59 | CN(CC(=O)O)C(=O)OC(C)(C)C | 91 °C
60 | O=C1Nc2ccc(Cl)cc2C(c2ccccc2Cl)=NC1O (configuration not stated) | 166 °C
61 | CCC1OC(=O)C(C)C(OC2CC(C)(OC)C(O)C(C)O2)C(C)C(OC2OC(C)CC(N(C)C)C2O)C(C)(O)CC(C)C(=O)C(C)C(O)C1(C)O (configuration not stated) | 135 °C
62 | Cc1cc(C(=O)CCl)c(C)n1-c1ccc(F)cc1 | 80 to 82 °C
63 | C=CCOC(=O)C=CC(=O)OCC=C | -47 °C

Row | Structure (SMILES) | melting point
64 | CC(=O)OC1CCC2C3CC=C4CC5(CCC4(C)C3CCC12C)OCCO5 (configuration not stated) | 196 °C
65 | N#CCCn1cc(C(F)(F)F)ccc1=O | 89 to 90 °C
66 | C/C(CCc1oc2ccc(Cl)cc2c1-c1ccc(C)o1)=N/O | 114 to 115 °C
67 | CC1(C)CC(=O)c2c(C(=O)c3cccs3)noc2C1 | 131 °C
68 | CCCCCCCl | -94 °C
69 | CC1=CC(=O)NS(=O)(=O)O1 | 123 °C
70 | C=C(C)CO | -50 °C
71 | FC(F)(F)c1ccc2[nH]c(S)nc2c1 | 277 to 279 °C
72 | COC(=O)Nc1nc2ccccc2[nH]1 | 305 °C
73 | CCC(O)CN (configuration not stated) | 3 °C
74 | COC(=O)C(C)(N)Cc1c[nH]c2ccccc12 (configuration not stated) | 139 to 142 °C
75 | NCC(O)C(=O)O (configuration not stated) | 235 °C
76 | CC12CCC(C(C(Br)N(O)c3ccccc3)C1=O)C2(C)C (configuration not stated) | 121 °C
77 | Fc1ccc2nc(C(F)(F)F)cc(Cl)c2c1 | 78 to 82 °C
78 | CC(C)CCCCCCCO | 5 °C
79 | CC1=NN(CN2CCCCC2)C(=O)/C1=N\Nc1cccc(O)c1 | 204 to 205 °C
80 | CC(C)C1=CC2=C(CC1)C1(C)CCCC(C)(C(=O)O)C1CC2 (configuration not stated) | 164 °C
81 | CC(CCC(=O)O)C1CCC2C3CCC4CCCCC4(C)C3CCC12C (configuration not stated) | 164 °C
82 | O=C(O)COC(=O)c1cc(Oc2ccc(C(F)F)cc2Cl)ccc1[N+](=O)[O-] | 65 °C

Further lines, results first:

Row | melting point | Structure (SMILES)
83 | 80 to 81 °C | O=C(Cl)c1ccc2c(c1)OCO2
84 | 122 °C | O=C1C=CC2=CC(=O)C=CC(=C1)C2
85 | 170 to 171 °C | CC(C)S(=O)(=O)c1csc(C(=O)Cl)c1Cl
86 | 150 °C | CC12CCC(=O)C=C1C=CC1C2CCC2(C)C1CCC21CCC(=O)O1 (configuration not stated)
87 | 173 to 177 °C | Oc1ccc(Sc2ccc(O)cc2O)c(O)c1
88 | 168 °C | Cn1c(/C(C#N)=N/Nc2c(Cl)cc(Cl)cc2Cl)nc2ccccc21
89 | 89 °C | OCCNC(CO)(CO)CO
90 | 144 to 146 °C | CC(=O)Nc1ccc(C(F)(F)F)cc1Br
91 | 82 °C | CCOC(=O)c1c(-c2ccc(C)c(C)c2)csc1N
92 | 284 °C | Nc1ccc(O)c(C(=O)O)c1
93 | 188 °C | Cn1c(S)nnc1-c1ccccc1
94 | 267 °C | NS(=O)(=O)c1cc2c(cc1Cl)CN(C1CCCCC1)C2=O
95 | 193 °C | Nc1ncc(Cl)cc1[N+](=O)[O-]
96 | -11 °C | Cc1ccncc1C
97 | 188 °C | COc1ccc(C=CC(=O)c2ccc(O)cc2)cc1
98 | 155 to 157 °C | CCOC(=O)c1sc2sc(C#N)c(C)c2c1C
99 | 126 °C | COc1ccc(CC(=O)O)cc1OCc1ccccc1
100 | 98 to 100 °C | OCc1ccccc1Cn1cncn1
101 | 168 to 172 °C | O=C(Cl)N1c2ccccc2Sc2ccccc21
102 | 199 °C | Cc1ccc(-c2c(C#N)c(=O)n3c(sc4ccccc43)c2C(N)=O)cc1
103 | -17 °C | Cc1cccnc1C
104 | -61 °C | CCC(C)CCC(C)O (configuration not stated)
105 | 61 °C | Nc1cnccc1I
106 | 94 to 95 °C | Cc1cncc(N2CCC(C(=O)Oc3c(F)c(F)c(F)c(F)c3F)CC2)n1
107 | 71 °C | O=C1Cc2cccc(Cl)c21

Row | melting point | Structure (SMILES)
108 | 63 to 64 °C | Brc1cccc(-n2cccc2)c1
109 | 137 to 138 °C | O=C1C(c2ccc(Br)cc2)=C(O)c2ccccc21
110 | 100 °C | O=C(O)C(CBr)CBr
111 | 232 °C | COC(=O)c1nc(Cl)c(Cl)nc1N
112 | 126 °C | OC(CCl)C(O)CCl (configuration not stated)
113 | 146 °C | Cc1cccc(C)c1NC(=O)c1cnc(C(C)(C)C)c(Cl)n1
114 | 143 °C | C=CCn1c(N)cc(=O)n(CC)c1=O
115 | 128 to 130 °C | O=C(O)C1CC(=O)N(Cc2ccc(C(F)(F)F)cc2)C1 (configuration not stated)
116 | 360 °C | Nc1nc(N)sc(=S)n1
117 | 153 to 155 °C | CC(=O)NC(Cc1ccccc1F)C(=O)O (racemic)
118 | 168 °C | Cc1ccc(C2CC(c3ccc4ccccc4c3)=NN2c2ccccc2)cc1 (configuration not stated)
119 | 56 °C | Cc1cccc2c1CC2=O
120 | 159 to 160 °C | O=C(O)C1CC(=O)N(Cc2ccco2)C1 (configuration not stated)
121 | 102 °C | CCOC(=O)c1sc(-c2ccccn2)nc1CBr
122 | 137 °C | COc1ccc(N2C(=O)C3ON=C(C(=O)c4ccco4)C3C2=O)cc1 (configuration not stated)
123 | 63 to 65 °C | O=C(OCc1ccccc1)[C@@H](O)[C@H](O)C(=O)OCc1ccccc1
124 | 26.5 °C | Ic1cccc(-c2ccccc2)c1
125 | 105 °C | O=C(c1ccccc1)c1ccc(Cl)c([N+](=O)[O-])c1
126 | -83 °C | COC(C)COC(C)CO (configuration not stated)
127 | 181 °C | COc1ccc(C(=O)c2nn(-c3ccccc3)/c(=N\N=Cc3ccccc3Cl)s2)cc1
128 | 110 °C | NS(=O)(=O)c1ccc(SCCCO)c(F)c1
129 | 37.5 °C | CCCNC(C)C(=O)Nc1ccccc1C (configuration not stated)
130 | 0 °C | C#CCCCCCCCCCCCC
131 | 51 to 54 °C | c1ccc(N2CCOCC2)cc1
132 | 186 to 188 °C | O=C(O)c1csc(-c2ccc(C(F)(F)F)cc2)n1
